Here are results for 26 molecules from patent US11613538B2, “Method of inhibiting or reducing a viral infection” (PTC Therapeutics, Inc., priority 2009, dated 2023).

This assay relates to hypoxia-induced VEGF production in HeLa cells. Kind of assay: cells. Type of assay: cell-based, human. Particulars: Homo sapiens, HeLa.
The EC50 is the concentration that produces a half-maximal response. Read a low EC50 as higher potency in that assay. With `[H]/N=C(\N)NCCOc1ccc(C2c3[nH]c4ccc(Cl)cc4c3CCN2C(=O)OCC(C)C)cc1` (centres unmarked) [Compound 1435], the EC50 is 200 to 1000 nM.

Take `O=C(OC1CCCC1)N1CCc2c([nH]c3ccc(Cl)cc23)[C@@H]1c1ccc(OC[C@@H](O)CO)cc1` [Compound 1323]: the EC50 is under 8 nM.

In the case of `COc1ccc(C2c3[nH]c4ccc(S(C)(=O)=O)cc4c3CCN2C(=O)Oc2ccc(F)cc2)cc1` (centres unmarked) [Compound 1499], the concentration for a half-maximal effect (EC50) is over 1000 nM.

Molecule `CC(C)OC(=O)N1CCc2c([nH]c3ccc(Br)cc23)C1c1ccc(OCC(C)(CO)CO)cc1` (centres unmarked) [Compound 1350] returned an EC50 of under 8 nM.

For the molecule `O=C(Oc1ccc(Cl)cc1)N1CCc2c([nH]c3ccc(Cl)cc23)[C@@H]1c1ccc(OC[C@@H](O)CN2CCOCC2)cc1` [Compound 1071], the EC50 was under 8 nM.

Turning to `CCOC(=O)NCC(O)COc1ccc(C2c3[nH]c4ccc(Cl)cc4c3CCN2C(=O)OCC)cc1` (centres unmarked) [Compound 1470], the EC50 is under 8 nM.

On to `[H]/N=c1\scnn1CCOc1ccc(C2c3[nH]c4ccc(Cl)cc4c3CCN2C(=O)OCC)cc1` (centres unmarked) [Compound 1400], for which the EC50 was under 8 nM.

`COc1ccc([C@H]2c3[nH]c4ccc(Cl)cc4c3CCN2C(=O)OCC2CCC2)cc1` [Compound 1372] came in with an EC50 of under 8 nM.

Regarding `COc1ccc(OC(=O)N2CCc3c([nH]c4cc(F)ccc34)C2c2ccc(F)cc2)cc1` (centres unmarked) [Compound 1458], the EC50 was over 1000 nM.

Molecule `CC#CCOC(=O)N1CCc2c([nH]c3ccc(Cl)cc23)C1c1ccc(OCC(O)CO)cc1` (centres unmarked) [Compound 1018] came in with an EC50 of 8 to 40 nM.

In the case of `CC#CCOC(=O)N1CCc2c([nH]c3ccc(Cl)cc23)C1c1ccc(OCC(O)CN)cc1` (centres unmarked) [Compound 1002], the EC50 was 40 to 200 nM.

Turning to `CCOC(=O)N1CCc2c([nH]c3ccc(Cl)cc23)[C@@H]1c1ccc(OCCC(O)Cn2cncn2)cc1` (some centres unmarked) [Compound 1287], the concentration for a half-maximal effect (EC50) fell in the range of 8 to 40 nM.

`O=C(OCCN1CCOCC1)N1CCC(Oc2ccc([C@H]3c4[nH]c5ccc(Cl)cc5c4CCN3C(=O)Oc3ccc(Cl)cc3)cc2)CC1` [Compound 1693] yielded an EC50 of under 8 nM.

`CC#CCOC(=O)N1CCc2c([nH]c3ccc(Cl)cc23)C1c1cnc(OC)nc1` (centres unmarked) [Compound 1692] yielded a concentration for a half-maximal effect (EC50) of 8 to 40 nM.

Turning to `CCOC(COc1ccc(C2c3[nH]c4ccc(Cl)cc4c3CCN2C(=O)Oc2ccc(Cl)cc2)cc1)OCC` (centres unmarked) [Compound 1228], the EC50 is under 8 nM.

In turn, `O=C(OCC1CCCC1)N1CCc2c([nH]c3ccc(Cl)cc23)[C@@H]1c1ccc(OC[C@@H](O)CO)cc1` [Compound 1686] came in with a 50% effective concentration (EC50) of under 8 nM.

The molecule `CC(CO)(CO)COc1ccc([C@H]2c3[nH]c4ccc(Cl)cc4c3CCN2C(=O)OCC2CC2)cc1` [Compound 1375] came in with a concentration giving a half-maximal response (EC50) of under 8 nM.

In turn, `CCOC(=O)N1CCc2c([nH]c3ccc(Cl)cc23)C1c1ccc(OCC(O)CNC(=O)c2cccnc2)cc1` (centres unmarked) [Compound 1468] showed an EC50 of under 8 nM.

Molecule `CCOC(=O)N1CCc2c([nH]c3ccc(Cl)cc23)C1c1ccc(OC)nc1` (centres unmarked) [Compound 1480] returned an EC50 of 8 to 40 nM.

For `CC(C)COC(=O)N1CCc2c([nH]c3ccc(Br)cc23)C1c1ccc(OCC[C@H](O)CO)cc1` (some centres unmarked) [Compound 1347], the EC50 was under 8 nM.

The molecule `CC#CCOC(=O)N1CCc2c([nH]c3cc(Cl)ccc23)C1c1ccc(OC)cc1` (centres unmarked) [Compound 1443] yielded an EC50 of 200 to 1000 nM.

On to `COc1ccc(C2c3[nH]c4ccc(Cl)cc4c3CCN2c2nc(-c3ccccn3)cs2)cc1` (centres unmarked) [Compound 1590], for which the EC50 was in the range of 8 to 40 nM.

For `CC#CCOC(=O)N1CCc2c([nH]c3ccc(Cl)cc23)C1c1ccc(OCC2OCCO2)cc1` (centres unmarked) [Compound 1047], the EC50 is under 8 nM.

With `CCOC(=O)N1CCc2c([nH]c3c(C)cccc23)C1c1ccc(OC)cc1` (centres unmarked) [Compound 1428], the EC50 was over 1000 nM.

With `COc1ccc(C2c3[nH]c4ccc(Cl)cc4c3CCN2c2nc(-c3ccccc3)cs2)cc1` (centres unmarked) [Compound 1598], the EC50 was under 8 nM.

`CC(C)OC(=O)N1CCc2c([nH]c3ccc(Cl)cc23)[C@@H]1c1ccc(OCCCO)cc1` [Compound 1252] came in with a half-maximal effective concentration (EC50) of under 8 nM.
